Patent publication US20180284123A1, “BARCODED RAPID ASSAY PLATFORM USEFUL FOR EFFICIENT ANALYSIS OF CANDIDATE MOLECULES AND METHODS OF MAKING AND USING THE PLATFORM” (California Institute of Technology, priority 2017, published 2018)

How the values were obtained:
[1] = molecular target: T1, KRAS (Homo sapiens, UniProt P01116); assay: B-RAP surface immunofluorescent assay, PCC ligand KRas EC50; format: binding
T1 construct: His6-tagged human KRas Isoform 4B (residues 1-169); His6; made in house; host or cells: E. coli BL21(DE3), PQE80 vector
Method: The barcode patterned microchip surface was partitioned into 16 individual microwells using a pre-fabricated PDMS slab. Individual biotinylated PCC candidates were complexed to specific SAC-DNA conjugates, combined into a cocktail, and then self-assembled, via DNA hybridization, onto designated barcode stripes (FIGS. 2-4). Incubation with a specific concentration of the target protein preceded incubation with a primary capture antibody and then a fluorophore-conjugated secondary detection antibody. During assay execution, each well represents a different target concentration or assay condition. Once developed, the fluorescence of the barcodes is digitized using a GenePix 4400A array scanner, with an excitation laser power optimized to a power level of 40% (60 W), which maximizes detection sensitivity while also minimizing signal saturation. Data extraction occurs using 10 μm radius circles, taken along the length of a barcode stripe. A fluorescence signal representing the average of all the pixels within a given circle is collected. A total of ten circles (data-blocks) are measured along a 180 μm span of the middle portion for each individual barcode lane in a given well. 10 μM KRas protein gave an average F635 of 47,868.7, with a standard deviation of 4154.53. 1 μM KRas protein gave an average F635 of 11437.6, with a standard deviation of 1602.202. 100 nM KRas protein gave an average F635 of 1780.6, with a standard deviation of 236.38. This illustrates the intensity across a stripe compared to the intensity from the data-block extraction. After extraction the data is background corrected. The background signal arises from (a) non-specific binding of the primary and secondary antibodies (independent of [KRas]), but can vary across different barcode stripes), and (b) non-specific binding of KRas protein ([KRas] dependent). Background (a) was assessed by measuring the average signal in the null protein well for each stripe. Background (b) was assessed by measuring the average fluorescence for the dummy ligand (Biotin* probe) that was in each well. The background subtracted data was then graphed in Graphpad Prism 7 and fitted to a sigmoidal curve (Hill coefficient=1).
Measurement of PCC Ligand KRas EC50 with the Barcode Rapid Assay Platform
Protein Incubation Buffer: Tris-buffered saline (TBS)+0.05% Tween20 (TBST)
A pre-fabricated PDMS template was aligned onto the DNA barcode microchip, and the microchip was taped into a 10 cm petri dish. The wells on the platform were wet with 50 μL PBST before filling with blocking buffer and placing into a 37° C. incubator for 1 hr. Concurrently, 40 μL 1% BSA in PBS solutions containing 750 nM of a SAC-DNA conjugate and 3.75 μM of one biotinylated PCC ligand or biotin-A20-Cy3 blank were prepared for each SAC-DNA conjugate. The biotinylated ligands were allowed to complex with the SAC protein for one hour before pooling the SAC-DNA-ligand solutions (final [SAC-DNA-ligand conjugates]=50 nM). The blocking buffer was aspirated and each well was loaded with the SAC-DNA-ligand conjugates cocktail for hybridization with the DNA barcode at 37° C. for one hour. The wells were washed with PBST (3×) before loading serially diluted solutions of KRas protein in protein buffer (0 to 400 μM). After shaking at RT for one hour, the wells were rinsed with PBST (5×), making sure to pipet up/down with the first addition of PB ST. A (100:1) dilution of CST rabbit anti-Ras Ab (#39655) in 1° ab buffer was added to each well before shaking at RT for one hour. After rinsing the wells with PBST (3×), the wells were loaded with a (200:1) dilution of Abcam goat anti-rabbit-Alexafluor 647 linked ab (ab150079) in 2° ab buffer before shaking at RT for one hour. A final rinse of the wells with PBST (3×) proceeded peeling off the PDMS slab from the barcode microchip and dipping the barcode into the following solutions: PBS, (1:1) PBS: MQ H2O, MQ H2O (2×). […]

[2] = molecular target: T1, KRAS; assay: Multi-well ELISA, PCC ligand KRas EC50; format: binding; conditions: triplicate, KRas 0→300 μM, Hill coefficient=1
Method: Measurement of PCC Ligand KRas EC50 Using the Multi-Well ELISA Technology
A 96-well Pierce Neutravidin Plate was washed with binding buffer (3×5 minutes at RT) before loading plate with a 1 μM solution of either blank (biotin-PEG5-NHAc) (singly) or biotinylated PCC ligand (in triplicate). The plate incubated for two hours before washing with binding buffer (3×5 minutes). Blocking buffer was added to each well and the plate blocked for one hour before undergoing washing with binding buffer (3×5 minutes). Each well was loaded with either binding buffer or KRas solution (0→300 μM), and the plate was incubated for 30 minutes. Plate washing with binding buffer (3×5 minutes) preceded incubating the plate with a (1000:1) dilution of 1° antibody (ab) rabbit anti-Ras (CST #3965) in ab buffer for thirty minutes. The plate was washed with binding buffer (3×5 minutes), loaded with a (2000:1) dilution of 2° ab goat anti-rabbit, HRP-linked ab (CST #7074) in ab buffer, and incubated for an additional thirty minutes. […] After quenching the enzymatic reaction with 1M H2SO4(aq) (100 μL) the plate was read at λ=450 nm within ten minutes. The data was double background corrected using the ab only absorbance and the dummy ligand absorbance, plotted using Prism GraphPad 7 (Sigmoidal 4PL mode with the Hill coefficient set=1), and an EC50 value was calculated.

[3] = molecular target: T1, KRAS; assay: Barcoded rapid assay microchip binding curves of FIG. 6A/6B; conditions: fitted curves of FIG. 6B, Hill coefficient set to 1, triplicate
Method: FIG. 6A is a picture of a barcoded rapid assay microchip (60) following its use for binding curve assays of KRAS to candidate ligands. […] EC50 binding curves of 15 candidate ligands were simultaneously generated against the target protein KRAS. Each microwell (ovals) represents a distinct concentration of KRAS that was added (values are given above each well). All 15 candidate ligands were measured in triplicate in each microwell.
FIG. 6B is a graph of the EC50 binding curves generated from the barcoded rapid assay microchip of FIG. 6A. Images of the barcoded rapid assay microchip were digitized using a fluorescence image scanner and plotted as binding curves (61) for each of the candidate ligands. All binding curves were fitted to Hill functions, with the Hill coefficient set to 1.
A series of peptide ligands that were identified as candidate binders to the protein KRas, using known literature methods, were prepared according to the methods of FIG. 3, and assembled into the individual microwells of the barcoded rapid assay microchip as illustrated in FIG. 4. […] Fluorescence imaging of the individual wells was then used to generate a fluorescence intensity, vs KRAS concentration, for each of the individual candidate ligands. […]

T1 sequence (P01116 1-169 isoform P01116-2): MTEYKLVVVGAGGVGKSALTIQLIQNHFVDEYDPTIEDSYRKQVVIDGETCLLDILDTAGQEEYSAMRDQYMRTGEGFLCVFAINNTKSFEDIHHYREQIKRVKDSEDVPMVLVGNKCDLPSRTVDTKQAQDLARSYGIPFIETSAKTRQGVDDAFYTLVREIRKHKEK

Avg F635, Full Centroid ([1]; 10 μM KRas well of plate #1, pixel by pixel, full centroid): 45500
Avg F635, Full Lane ([1]; 10 μM KRas well of plate #1, pixel by pixel, full lane): 41812
avg F635, Left Part Centroid ([1]; 10 μM KRas well of plate #1, pixel by pixel, left part of centroid): 39380
avg F635, Middle Part Centroid ([1]; 10 μM KRas well of plate #1, pixel by pixel, middle part of centroid): 47791
avg F635, Right Part Centroid ([1]; 10 μM KRas well of plate #1, pixel by pixel, right part of centroid): 49508
EC50 ([1]; 13-point KRas concentration series, each point in decaplicate, Hill coefficient=1): 3.86 ± 0.57 µM
EC50 [2]: 3 ± 4.9 µM
EC50 [3]: 6.29 µM
Structure (SMILES): NC(=O)CC[C@@H]1NC(=O)[C@@H](N)Cc2cn(nn2)CCCC[C@@H](C(=O)NCCOCCOCCOCCOCCOCCC(=O)NCCNC(=O)CCCC[C@@H]2SC[C@@H]3NC(=O)N[C@@H]32)NC(=O)[C@H](Cc2ccc(O)cc2)NC(=O)[C@H](Cc2ccccc2)NC(=O)[C@H](CC(N)=O)NC(=O)[C@H](CC(=O)O)NC1=O (single isomer, unassigned) [Ligand L9b, QDNFY]
